In patent US10792282B2, “Protein kinase C inhibitors and uses thereof” (Rigel Pharmaceuticals, Inc., priority 2013, dated 2020) one finds EC50 data, which are given here for 19 compounds.

Like-named read-outs stand apart in the source and are kept apart here.

The subject of the assay is PKC mediated IL-2 production. Nature of the assay: IL-2 ELISA, human primary T cell, anti CD3+CD28+ (whole cell functional assay). In kind it is cell-based. As to the method:
Human primary T cells were prepared as follows. Fresh PBMC's from All Cells (Cat # PB002) were re-suspended in RPMI (RPMI-1640 with L-Glutamine; Mediatech, Inc., Herndon Va., cat. #10-040-CM) with 10% FBS and seeded into flasks and incubated at 37° C. for 2 hours to allow the monocytes to adhere. The non-adherent cells were then centrifuged and re-suspended in RPMI medium containing 40 U/ml IL2 and seeded into a flask pre-coated with 1 μg/ml aCD3 and 5 ug/ml aCD28 (Anti-Human CD3, BD Pharmingen Catalog #555336, Anti-Human CD28, Beckman Coulter Catalog # IM1376). The cells were stimulated for 3-4 days, then transferred to a fresh flask and maintained in RPMI (RPMI-1640 with L-Glutamine; Mediatech, Inc., Herndon Va., cat. #10-040-CM) with 10% FBS and 40 U/ml IL-2.
(§1) Human primary T cells (100,000 cells per well) were pre-incubated with or without test compound in RPMI-1640 with L-Glutamine and 10% FBS for 1 hour at 37° C. Cells were then stimulated by transferring them to round-bottom 96-well plates pre-coated with 1 μg/ml αCD3 and 5 μg/ml αCD28. For counter assay, cells were instead stimulated by adding 8× stock solutions of PMA and ionomycin in RPMI-1640 with L-Glutamine and 10% FBS (for final concentrations of 0.5 ng/ml PMA and 0.1 μM ionomycin, both from Calbiochem). Cells were incubated at 37° C. for 24 hours before 100 μL supernatants were harvested for quantification of IL-2 by ELISA using Human IL-2 Duoset ELISA Kit from R and D Systems, Cat. # DY202E.
Compounds 1-90 were tested in a whole cell functional assay for PKC mediated IL-2 production as follows. Human primary T cell isolation and culture: Human primary T cells were prepared as follows. Whole blood was obtained from a healthy volunteer, mixed 1:1 with PBS, layered on to Ficoll Hypaque (Amersham Pharmacia Biotech, Piscataway, N.J., Catalog #17-1440-03) in 2:1 blood/PBS:ficoll ratio and centrifuged for 30 minutes at 4° C. at 1750 rpm. The cells at the serum: ficoll interface were recovered and washed twice with 5 volumes of PBS. These freshly isolated human peripheral blood mononuclear cells were cultured in Yssel's medium containing 40 U/ml IL2 in a flask pre-coated with 1 μg/ml αCD3 and 5 μg/ml αCD28 (Anti-Human CD3, BD Pharmingen Catalog #555336, Anti-Human CD28, Beckman Coulter Catalog # IM1376). The cells were stimulated for 3-4 days, then transferred to a fresh flask and maintained in RPMI (RPMI-1640 with L-Glutamine; Mediatech, Inc., Herndon Va., cat. #10-040-CM) with 10% FBS and 40 U/ml IL-2. The primary T-cells were then washed twice with PBS to remove the IL-2.
as §1, with “Primary T cell stimulation and IL2 ELISA: Human primary” for “Human primary”, “compound in Yssel's medium for 1” for “compound in RPMI-1640 with L-Glutamine and 10% FBS for 1”, “ionomycin in Yssels (for final” for “ionomycin in RPMI-1640 with L-Glutamine and 10% FBS (for final”, “and 0.1 uM ionomycin, both” for “and 0.1 μM ionomycin, both”
(ELISA stands for enzyme-linked immunosorbent assay.)

Where [1] appears, read: Homo sapiens, T-cell, 24 h, IL-2 production, human primary T cells stimulated with αCD3 and αCD28, 24 hours, IL-2 by ELISA, read-out: EC50.
[2] abbreviates: Homo sapiens, T-cell, human primary T cells stimulated with αCD3 and αCD28, IL-2 by ELISA, read-out: EC50 (blocked IL-2 production).
The mark [3] stands for this setting: IL-2 production, human primary T cells stimulated with αCD3 and αCD28, 24 hours, IL-2 by ELISA, read-out: EC50.

`Cn1nnn(-c2cc(Nc3ncc(F)c(NC4CC5CCCN5C(C)(C)C4)n3)ccc2OC2CCOCC2)c1=O` (racemic) [Compound 51, 1-(5-(5-fluoro-4-(octahydro-5,5-dimethylindolizin-7-ylamino)pyrimidin-2-ylamino)-2-(tetrahydro-2H-pyran-4-oxy)phenyl)-4-methyl-1H-tetrazol-5(4H)-one]: the EC50 is, setting by setting: under setting [1], less than 0.5 µM; under setting [2], less than 10 µM.
As for `Cn1nnn(-c2cc(Nc3ncc(F)c(N[C@H]4C[C@H]5CCCN5C(C)(C)C4)n3)c(F)cc2C2CC2)c1=O` [Compound 18, 1-(5-(4-((7S,8aR)-octahydro-5,5-dimethylindolizin-7ylamino)-5-fluoropyrimidin-2-ylamino)-2-cyclopropyl-4-fluorophenyl)-4-methyl-1H-tetrazol-5(4H)-one], the EC50 by setting is: under setting [1], less than 1 µM; under setting [2], less than 10 µM.
In the case of `Cn1nnn(-c2cc(Nc3ncc(F)c(N[C@@H]4C[C@@H]5CCCN5C(C)(C)C4)n3)ccc2OC(C)(C)CO)c1=O` [Compound 86, 1-(2-(1-hydroxy-2-methylpropan-2-yloxy)-5-(4-((7R,8aS)-octahydro-5,5-dimethylindolizin-7-ylamino)-5-fluoropyrimidin-2-ylamino)phenyl)-4-methyl-1H-tetrazol-5(4H)-one], the EC50 is less than 0.1 µM under setting [1] and less than 10 µM under setting [2].
For the compound `CC(C)N1CCC(Oc2ccc(Nc3ncc(F)c(NC4CC5CCCN5C(C)(C)C4)n3)cc2OC(F)F)CC1` (centres unmarked) [Compound 8, (R/S, S/R, R/R, S/S)—N^2-(4-(1-isopropylpiperidin-4-yloxy)-3-(difluoromethoxy)phenyl)-5-fluoro-N^4-(octahydro-5,5-dimethylindolizin-7-yl)pyrimidine-2,4-diamine], under setting [3], the EC50 is less than 1 µM.
With `Cn1nnn(-c2cc(Nc3ncc(F)c(N[C@@H]4C[C@@H]5CCCN5C(C)(C)C4)n3)c(F)cc2OCC(C)(C)O)c1=O` [Compound 87, 1-(5-(4-((7R,8aS)-5,5-dimethyloctahydroindolizin-7-ylamino)-5-fluoropyrimidin-2-ylamino)-4-fluoro-2-(2-hydroxy-2-methylpropoxy)phenyl)-4-methyl-1H-tetrazol-5(4H)-one], the EC50 is, setting by setting: under setting [1], less than 0.1 µM; under setting [2], less than 10 µM.
Regarding `CC1(C)CC(Nc2nc(Nc3cc(-n4cnnn4)c(C4CC4)cc3F)ncc2F)CC2CCCN21` (racemic) [Compound 55, (±)-N2-(4-cyclopropyl-2-fluoro-5-(1H-tetrazol-1-yl)phenyl)-5-fluoro-n^4-(octahydro-5,5-dimethylindolizin-7-yl)pyrimidine-2,4-diamine], the EC50 under setting [3] was less than 0.5 µM.
As to `Cn1nnn(-c2cc(Nc3ncc(F)c(NC4CCN5C(CCC5(C)C)C4)n3)c(F)cc2C2CC2)c1=O` (centres unmarked) [Compound 26], the EC50 reads like this: under setting [1], less than 10 µM; under setting [2], less than 10 µM.
Regarding `CC1(C)C[C@H](Nc2nc(Nc3cc(-n4cnnn4)c(C4CC4)cc3F)ncc2F)C[C@@H]2CCCN21` (racemic) [Compound 53, (±)-N2-(4-cyclopropyl-2-fluoro-5-(1H-tetrazol-1-yl)phenyl)-5-fluoro-n^4-(octahydro-5,5-dimethylindolizin-7-yl)pyrimidine-2,4-diamine], the EC50 under setting [2] was less than 10 µM.
In the case of `Cn1nnn(-c2cc(Nc3ncc(F)c(N[C@H]4C[C@@H]5C[C@@H](F)CN5C(C)(C)C4)n3)c(F)cc2C2CC2)c1=O` [Compound 65, 1-(5-(4-((2R,7S,8aR)-2-fluoro-octahydro-5,5-dimethylindolizin-7-ylamino)-5-fluoropyrimidin-2-ylamino)-2-cyclopropyl-4-fluorophenyl)-4-methyl-1H-tetrazol-5(4H)-one], the EC50 under setting [1] is less than 10 µM and the EC50 under setting [2] was less than 10 µM.
In the case of `CC1(C)CC(Nc2nc(Nc3ccc(O[C@H]4CCOC4)c(C#N)c3)ncc2F)CC2CCCN21` (single isomer, unassigned) [Compound 62], under setting [3], the EC50 was less than 0.5 µM.
In the case of `CC1(C)CC(Nc2nc(Nc3ccc(O[C@H]4CCOC4)c(C#N)c3)ncc2F)CC2CCCN21` (stereo partly drawn) [Compound 60, 2-((S)-tetrahydrofuran-3-yloxy)-5-(5-fluoro-4-(octahydro-5,5-dimethylindolizin-7-ylamino)pyrimidin-2-ylamino)benzonitrile], the EC50 under setting [1] is less than 0.5 µM and the EC50 under setting [2] was less than 10 µM.
On to `CC1(C)C[C@H](Nc2nc(Nc3cc(-n4cnnn4)c(C4CC4)cc3F)ncc2C#N)C[C@@H]2CCCN21` (racemic) [Compound 56, (±)-2-(4-cyclopropyl-2-fluoro-5-(1H-tetrazol-1-yl)phenylamino)-4-(octahydro-5,5-dimethylindolizin-7-ylamino)pyrimidine-5-carbonitrile], for which the EC50 under setting [1] is less than 0.1 µM and the EC50 under setting [2] was less than 10 µM.
`CC(C)N1CCC(Oc2ccc(Nc3ncc(F)c(NC4CC5CCCN5C(C)(C)C4)n3)cc2OC(F)F)CC1` (centres unmarked) [Compound 9, (R/S, S/R, R/R, S/S)—N^2-(4-(1-isopropylpiperidin-4-yloxy)-3-(difluoromethoxy)phenyl)-5-fluoro-N^4-(octahydro-5,5-dimethylindolizin-7-yl)pyrimidine-2,4-diamine]: the EC50 under setting [3] was less than 0.5 µM.
With `Cn1nnn(-c2cc(Nc3ncc(F)c(N[C@@H]4C[C@@H]5CCCN5C(C)(C)C4)n3)c(F)cc2OC2COC2)c1=O` [Compound 88, 1-(5-(4-((7R,8aS)-octahydro-5,5-dimethylindolizin-7-ylamino)-5-fluoropyrimidin-2-ylamino)-4-fluoro-2-(oxetan-3-yloxy)phenyl)-4-methyl-1H-tetrazol-5(4H)-one], the EC50 was less than 0.5 µM under setting [1] and less than 10 µM under setting [2].
For `Cn1nnn(-c2cc(Nc3ncc(C#N)c(N[C@@H]4C[C@@H]5CCCN5C(C)(C)C4)n3)c(F)cc2OC(C)(C)CO)c1=O` [Compound 84, 4-((7R,8aS)-octahydro-5,5-dimethylindolizin-7-ylamino)-2-(4-(1-hydroxy-2-methylpropan-2-yloxy)-2-fluoro-5-(4,5-dihydro-4-methyl-5-oxotetrazol-1-yl)phenylamino)pyrimidine-5-carbonitrile], the EC50 was less than 0.5 µM under setting [1] and less than 10 µM under setting [2].
For `COc1cc(Nc2ncc(F)c(NC3CC4CCCN4C(C)(C)C3)n2)cc(-n2nnnc2C)c1` (centres unmarked) [Compound 11, (R/S, S/R, R/R, S/S)-5-fluoro-N4-(octahydro-5,5-dimethylindolizin-7-yl)N2-(3-methoxy-5-(5-methyl-1H-tetrazol-1-yl)phenyl)pyrimidine-2,4-diamine], under setting [3], the EC50 is less than 10 µM.
For the compound `CC1(C)CC(Nc2nc(Nc3ccc(O[C@H]4CCOC4)c(C#N)c3)ncc2F)CC2CCCN21` (single isomer, unassigned) [Compound 61], the concentration giving a half-maximal response (EC50) was less than 1 µM under setting [1] and less than 10 µM under setting [2].
Take `Cn1nnn(-c2cc(Nc3ncc(F)c(NC4CC5CCCN5C(C)(C)C4)n3)ccc2OC2COC2)c1=O` (single isomer, unassigned) [Compound 39, 1-(5-(5-fluoro-4-(octahydro-5,5-dimethylindolizin-7-ylamino)pyrimidin-2-ylamino)-2-(oxetan-3-yloxy)phenyl)-4-methyl-1H-tetrazol-5(4H)-one]: the EC50 under setting [2] was less than 10 µM and the EC50 under setting [3] was less than 0.5 µM.
On to `Cn1nnn(-c2cc(Nc3ncc(F)c(N[C@@H]4C[C@@H]5CCCN5C(C)(C)C4)n3)c(F)cc2O)c1=O` [Compound 89, 1-(5-(4-((7R,8aS)-octahydro-5,5-dimethylindolizin-7-ylamino)-5-fluoropyrimidin-2-ylamino)-4-fluoro-2-hydroxyphenyl)-4-methyl-1H-tetrazol-5(4H)-one], for which the EC50 was less than 10 µM under setting [1] and less than 10 µM under setting [2].

The EC50 is the midpoint of the concentration-response curve.
